Values quoted from earlier work, collected in patent US10550245B2, “Alternative methods to control crosslinking in high impact polystyrene” (Fina Technology, Inc., priority 2015, dated 2020).
Like-named read-outs stand apart in the source and are kept apart here.

Q: What does the source list for `CC(C)(C)c1cc(CCC(=O)NCCCCCCNC(=O)CCc2cc(C(C)(C)C)c(O)c(C(C)(C)C)c2)cc(C(C)(C)C)c1O` [BNX ® 1098]?
A: Solubility, 80% Caprolactam + 20% water (at 25° C.): 3 g/100 ml solvent; Solubility, 95% Caprolactam + 5% water (at 25° C.): >20 g/100 ml solvent; Solubility, Acetone (at 25° C.): 2 g/100 ml solvent; Solubility, Benzene (at 25° C.): 0.01 g/100 ml solvent; Solubility, Caprolactam (at 25° C.): >20 g/100 ml solvent; Solubility, Chloroform (at 25° C.): 6 g/100 ml solvent; Solubility, Ethyl Acetate (at 25° C.): 1 g/100 ml solvent; Solubility, Hexane (at 25° C.): 0.01 g/100 ml solvent; Solubility, Methanol (at 25° C.): 6 g/100 ml solvent; Solubility, Water (at 25° C.): 0.01 g/100 ml solvent

Q: With `CC(C)(C)c1cc(CCC(=O)OCC(COC(=O)CCc2cc(C(C)(C)C)c(O)c(C(C)(C)C)c2)(COC(=O)CCc2cc(C(C)(C)C)c(O)c(C(C)(C)C)c2)COC(=O)CCc2cc(C(C)(C)C)c(O)c(C(C)(C)C)c2)cc(C(C)(C)C)c1O` [BNX ® 1010, tetrakis[methylene-3(3′,5′-di-tert-butyl-4-hydroxyphenyl)propionate]methane] as the compound, how does the “Solubility (10 g/100 ml Toluene)” value (10 g/100 ml Toluene, 25° C.) read?
A: Its value is “Clear (25° C.)”.

Q: What about the “Solubility, Acetone” value (at 25° C., Table 5B) of the same compound?
A: Its value is 47%.

Q: What about the “Solubility, Benzene” value (at 25° C., Table 5B) of the same compound?
A: Its value is 56%.

Q: And the “Solubility, Chloroform” value (at 25° C., Table 5B)?
A: Its value is 71%.

Q: What about the “Solubility, Ethanol” value (at 25° C., Table 5B) of the same compound?
A: The value was 1.5%.

Q: And the “Solubility, Ethyl Acetate” value (at 25° C., Table 5B)?
A: Its value is 46%.

Q: And the “Solubility, Hexane” value (at 25° C., Table 5B)?
A: Its value is 0.3%.

Q: What about the “Solubility, Methanol” value (at 25° C., Table 5B) of the same compound?
A: The value was 1%.

Q: What about the “Solubility, Methylene Chloride” value (at 25° C., Table 5B) of the same compound?
A: The value was 63%.

Q: What about the “Solubility, Toluene” value (at 25° C., Table 5B) of the same compound?
A: Its value is 60%.

Q: What about the “Solubility, Water” value (at 25° C., Table 5B) of the same compound?
A: The value was less than 0.01% ^.

Q: For `CCCCCCCCSc1nc(Nc2cc(C(C)(C)C)c(O)c(C(C)(C)C)c2)nc(SCCCCCCCC)n1` [BNX ® 565, 2,6-di-tert-butyl-4-(4,6-bis(octylthio)-1,3,5-triazin-2-ylamino)phenol], which “Solubility (wt. %), Acetone” value (Table 2) is on record?
A: The value was 20 wt. %.

Q: And the “Solubility (wt. %), Benzene” value (Table 2)?
A: Its value is 43 wt. %.

Q: What about the “Solubility (wt. %), Chloroform” value (Table 2) of the same compound?
A: The value was 39 wt. %.

Q: What about the “Solubility (wt. %), Ethyl Acetate” value (Table 2) of the same compound?
A: The value was 46 wt. %.

Q: What about the “Solubility (wt. %), Hexane” value (Table 2) of the same compound?
A: Its value is 6 wt. %.

Q: And the “Solubility (wt. %), Methanol” value (Table 2)?
A: Its value is 1.4 wt. %.

Q: What about the “Solubility (wt. %), Water” value (Table 2) of the same compound?
A: The value was less than 0.01 wt. %.
